From patent publication US6984394B2, “Plastically deformable implant” (Bausch & Lomb Incorporated, priority 1999, dated 2006)

Experiments:
[1] = Surface tension of surface-active agent; assay type: physicochemical; conditions: in aqueous solution
Text: According to the present invention, the term fluorine-containing gel is defined as a gel-like preparation which comprises a minimum of one fluorocarbon. In especially useful embodiments of the present invention, the fluorine-containing gel comprises essentially three components, i.e., a fluorocarbon, a fluorine-containing surface-active agent, and water. It is possible for different additives to be added to the fluorocarbon-containing and aqueous components. Certain compositions of surface-active agents, fluorocarbons, and water form gels which are able to completely recover their gel structure after they have been liquefied, for example, by exposure to mechanical pressure or heat. This property of the gels according to the present invention makes it possible for them to be used as a generic implant over a long period of time. If the implant material of such an implant that has been inserted into a bodily orifice were to liquefy, for example, as a result of short-term pressure, the gel structure, due to the reversibility described, would be able to recover when in a state of rest. Thus, the implant according to the present invention has a self-regulating restorative mechanism. This self-regulating restorative mechanism of a polyaphron gel is attributable to the stability of the aphrons that form the gel. After liquefaction, a gel can restore its structure only if its “building blocks,” the aphrons, were not completely destroyed. If a sufficient number of intact aphrons remain after liquefaction, a recovery is possible, and what comes as a surprise is the fact that the aphron structure is transferred to the homogenized regions of the surrounding liquid and that the gel structure is restored in the entire liquid. The stability of the aphrons depends on the intensity of the interaction between water, surface-active agent, and perfluorocarbon, which in turn is determined by the surface properties and the ability of the individual phases to spread on each other's surface. In addition, an important aspect is the intensity of the interactions of the molecules within the films that envelop the aphrons (water/surface-active agent; perfluorocarbon/surface-active agent). Thus, the self-regulating restorative mechanism is activated only if the surface properties of the surface-active agent/water and/or surface-active agent/perfluorocarbon film, on the one hand, and of the internal aphron phase, on the other hand, are properly coordinated, i.e., if the strength of the surface-active agent stabilizes the aphron structure. This can be implemented through the use of fluorine-containing surface-active agents of the general formula RF—Rpol, where RF stands for the linear or branched perfluoroalkyl groups with more than 5 carbon atoms and Rpol stands for a polar hydrocarbon residue which comprises a minimum of one functional group which is selected from CO—NH(R), CO—N(R)2, COO—, COOR, SO3; SO2N(R)2, CH2—O—R, PO2H, PO3H. The molecular weight is preferably >400 g/mol, the surface tension in aqueous solution is <30 mN/m and preferably <20 mN/m. The interfacial tension in aqueous solution with respect to the nonpolar component is <25 mN/m, preferably <10 mN/m, and the concentration is <3%, preferably <0.1%. With nonfluorinated surface-active agents, this can be achieved by means of a strong cohesive effect with an HLB value greater than 25 (HLB=hydrophilic lipophilic balance according to Griffin in J. Soc. Cosmet. Chem. 1 (1949), p. 311).

[2] = Interfacial tension with respect to the nonpolar component; assay type: physicochemical; conditions: surface-active agent, in aqueous solution
Text: According to the present invention, the term fluorine-containing gel is defined as a gel-like preparation which comprises a minimum of one fluorocarbon. In especially useful embodiments of the present invention, the fluorine-containing gel comprises essentially three components, i.e., a fluorocarbon, a fluorine-containing surface-active agent, and water. It is possible for different additives to be added to the fluorocarbon-containing and aqueous components. Certain compositions of surface-active agents, fluorocarbons, and water form gels which are able to completely recover their gel structure after they have been liquefied, for example, by exposure to mechanical pressure or heat. This property of the gels according to the present invention makes it possible for them to be used as a generic implant over a long period of time. If the implant material of such an implant that has been inserted into a bodily orifice were to liquefy, for example, as a result of short-term pressure, the gel structure, due to the reversibility described, would be able to recover when in a state of rest. Thus, the implant according to the present invention has a self-regulating restorative mechanism. This self-regulating restorative mechanism of a polyaphron gel is attributable to the stability of the aphrons that form the gel. After liquefaction, a gel can restore its structure only if its “building blocks,” the aphrons, were not completely destroyed. If a sufficient number of intact aphrons remain after liquefaction, a recovery is possible, and what comes as a surprise is the fact that the aphron structure is transferred to the homogenized regions of the surrounding liquid and that the gel structure is restored in the entire liquid. The stability of the aphrons depends on the intensity of the interaction between water, surface-active agent, and perfluorocarbon, which in turn is determined by the surface properties and the ability of the individual phases to spread on each other's surface. […]

CN(C[C@H](O)[C@@H](O)[C@H](O)[C@H](O)CO)C(=O)C(F)(F)C(F)(F)C(F)(F)C(F)(F)C(F)(F)C(F)(F)C(F)(F)F [Example T14, Perfluorooctanoic acid N-methyl-D-glucamide]
σO = surface tension [1]: σO < 20 mNm

Perfluoroalkyl ethanol oxethylate [Fluowet OTL]
σO = surface tension [1]: 19 mNm
σG = interfacial tension with respect to the nonpolar component [2]: 10 mNm

O=C(N(CCO)C[C@H](O)[C@@H](O)[C@H](O)[C@H](O)CO)C(F)(F)C(F)(F)C(F)(F)C(F)(F)C(F)(F)C(F)(F)C(F)(F)C(F)(F)C(F)(F)F [Example T21, Perfluorodecanoic acid N-(2-hydroxyethyl)-D-glucamide]
σO = surface tension [1]: σO < 20 mNm

O=C(N(CCO)CC(O)C(O)C(O)C(O)CO)C(F)(F)C(F)(F)C(F)(F)C(F)(F)C(F)(F)C(F)(F)C(F)(F)F [Example T16, Perfluorooctanoic acid N-(2-hydroxyethyl)-D-glucamide]
σO = surface tension [1]: σO < 20 mNm

Perfluorooctanoic acid tetraethyl piperazinium salt [HO224]
σO = surface tension [1]: σO = 16 mNm

O=C(N(CCO)CCO)C(F)(F)C(F)(F)C(F)(F)C(F)(F)C(F)(F)C(F)(F)C(F)(F)F [HO31, Perfluorooctanoic acid diethanolamide]
σO = surface tension [1]: σO < 20 mNm

Fluorinated amine oxide [Fluowet OX]
σO = surface tension [1]: 22 mNm
σG = interfacial tension with respect to the nonpolar component [2]: 12 mNm

Perfluoroalkyl ethanol oxethylate [Fluowet OTN]
σO = surface tension [1]: 18 mNm
σG = interfacial tension with respect to the nonpolar component [2]: 19 mNm

CC[N+](CC)(CC)CC.O=S(=O)([O-])C(F)(F)C(F)(F)C(F)(F)C(F)(F)C(F)(F)C(F)(F)C(F)(F)C(F)(F)F [Example B248, Tetraethyl animonium salt of perfluorooctanesulfonic acid]
σO = surface tension [1]: σO < 20 mNm

C[N+](C)(C)C.O=C([O-])C(F)(F)C(F)(F)C(F)(F)C(F)(F)C(F)(F)C(F)(F)C(F)(F)F [E 749, Tetramethyl ammonium salt of perfluorooctanoic acid]
σO = surface tension [1]: σO < 20 mNm
